In patent US20240409647A1, “BISPECIFIC BINDING PROTEINS AGAINST ALARMINS AND USES THEREOF” (SINOMAB BIOSCIENCE LIMITED, priority 2022, published 2024):
“And” between values parts separate entries of the source, which are not always exact repeats. Equal entries are not always repeated.

How the values were obtained:
[1] = target: T1, rhesus monkey IL17RB expressed on HEK293 cells (Macaca mulatta, UniProt H9FWT9); assay: Flow cytometry, SM17 binding to HEK293 transfected with rhesus monkey IL-17RB; conditions: SM17 1 μg/ml
T1 construct: transfected either with full-length human or rhesus monkey IL-17RB (SinoBiological, Beijing, China); host or cells: HEK293
T1 sequence (H9FWT9 18-502): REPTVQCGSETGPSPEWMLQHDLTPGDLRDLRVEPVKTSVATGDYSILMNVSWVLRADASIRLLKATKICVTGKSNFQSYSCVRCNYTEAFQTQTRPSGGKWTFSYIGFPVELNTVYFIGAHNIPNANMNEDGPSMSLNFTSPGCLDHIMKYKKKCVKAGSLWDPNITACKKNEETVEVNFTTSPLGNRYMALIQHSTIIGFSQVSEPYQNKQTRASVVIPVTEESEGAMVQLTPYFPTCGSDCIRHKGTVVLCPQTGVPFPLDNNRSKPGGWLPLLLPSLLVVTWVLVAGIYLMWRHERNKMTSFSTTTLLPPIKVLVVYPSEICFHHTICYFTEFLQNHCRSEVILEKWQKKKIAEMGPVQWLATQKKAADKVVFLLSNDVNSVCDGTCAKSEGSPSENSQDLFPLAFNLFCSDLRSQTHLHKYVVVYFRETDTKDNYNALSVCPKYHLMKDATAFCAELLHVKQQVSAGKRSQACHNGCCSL
Method: HEK293 cells (ATCC, Manassas, VA) transfected either with full-length human or rhesus monkey IL-17RB (SinoBiological, Beijing, China) were examined for binding to SM17 following standard protocol for flow cytometry. Wild-type HEK293 stained with IgG4 isotype control (Sino Biological) was used as the negative control and for gating purpose. Briefly, HEK293 cells at a density of 3×10^5 cells were seeded into each well of a 6-well plate. On the next day, human or rhesus Il-17RB full length cDNA were first cloned into pCMV3-untagged expression plasmid through standard molecular cloning technique, and then expression plasmids for human or rhesus IL-17RB were transfected into HEK293 cells by lipofection (Lipofectamine 3000 reagent; Thermo Fisher Scientific). Transfected cells were trypsinized, harvested, and fixed with 4% paraformaldehyde (5 minutes). SM17, or human IgG4 control at 1 μg/ml in washing buffer (3% BSA in PBS) were added to the resuspend cells for incubation at RT for 30 min before Alexa Fluor® 647-conjugated goat anti-human IgG specific antibody (1:2000 dilution in washing buffer) (Jackson ImmunoResearch) was added for flow cytometry analysis using the BD FACSVerse cell analyzer (Becton Dickenson, Franklin Lakes, NJ).

[2] = system: IL-2/IL-25-treated human PBMC; assay: IL-5 release from IL-2/IL-25-treated human PBMC; type: cell-based; conditions: SM17 0.16 ng/mL to 5 mg/mL; 10 unit/mL IL-2, 10 μg/mL IL-25; 72 hours; dose dependent
Method: PBMC (Ixcells, San Diego, CA) co-cultured with IL-2 and IL-25 (PeproTech, Cranbury, NJ) can lead to the release of IL-5, a cytokine known to exacerbate the conditions of asthma. Accordingly, the inhibitory effect of SM17 on IL-5 release from IL-2/IL-25-treated human PBMC was evaluated. Briefly, cryopreserved human PBMC were thawed and cultured in RPMI-1640 medium supplemented with 10% Fetal Bovine Serum (Thermo Fisher Scientific). Serially diluted SM17 at concentrations ranging from 0.16 ng/mL to 5 mg/mL were added to 4×10^5 of human PBMC in the presence of 10 unit/mL of IL-2 and 10 μg/mL of IL-25. Non-specific human IgG4 (SinoBiological) was used as the control antibody. Treated cells were incubated for 72 hours at 37° C., and the level of IL-5 release in the culture supernatant was measured by standard ELISA assay (R&D systems). […] Results are presented as means±SEM. One Way ANOVA, Dunnett's Multiple Comparison Test, *: P<0.05; **: P<0.01.

Cyno-IL17RB = assay: Bio-Layer Interferometry (Octet), SM17 binding kinetics to cynomolgus IL17RB; design: species or system cynomolgus monkey; conditions: trials 1 and 2
Method: Bio-Layer Interferometry analysis (Octet ReD96 system, Sartorius) was employed to determine the binding affinity of SM17 against human and cynomolgus monkey IL17RB protein (R&D systems). Briefly, SM17 (20 μg/mL) was immobilized on biosensors via interactions with anti-human Fab CH1; serially diluted Cyno-IL17RB and Human-IL17RB (at a concentration of 158.7 nM, 79.4 nM and 39.7 nM, respectively) were subsequently added following standard operation protocols of the Octet ReD96 system to plot out the association and dissociation curve. Irrelevant antibody (SM03, anti-human CD22 chimeric IgG1 antibody, SinoMab BioScience Limited) was used as the control reference. Of note, the KD is within picomolar-single digit nanomolar range.

[3] = system: Th2 cell population in human PBMC; assay: Th2 cell population in human PBMC culture (flow cytometry); type: cell-based; design: key: −: no inhibition; +: weak; ++: moderate; +++: strong inhibition; conditions: IL-2 (10 unit/mL) and three alarmins (10 ng/ml), 5 days
Text: While alarmins are known to work in concert to enhance ILC2 and Th2 cell functions such as increase in cell population, steroids such as Dexamethasone (Dex) can negate these effects, resulting in the mitigation of type 2 immune responses [Jia, Yi et al. American Journal Of Respiratory Cell And Molecular Biology, vol. 55, 5 (2016): 675-683]. ILC2 and Th2 cell population can be determined by flow cytometry (BD FACSVerse) following standard procedures known to those skilled in the art.

Human PBMCs = assay: IL-5 and IL-13 release from human PBMC incubated with IL-2 and three alarmins; type: cell-based; conditions: SM17 5 μg/ml; IL-2 and three alarmins (10 ng/ml), three days; vs IgG4 isotype control
Method: Human PBMCs (4×10^5 per group, Ixcells) were incubated with IL-2 (10 unit/mL, PeproTech) and various alarmin/alarmin combinations to mimic the pro-inflammatory cytokines release during allergic diseases. For IL-5 and IL-13 releases, PBMCs were incubated with IL-2 and three alarmins (all 10 ng/ml) for three days. For CCL17 release, PBMC was incubated with TSLP (10 ng/ml) for 1 day. For CCL8 and IFNγ releases, PBMCs were incubated with IL-12 (10 ng/ml, Sino Biological) and IL-33 (10 ng/ml) for 1 day. Cells were pretreated with SM17 (5 μg/ml) or IgG4 isotype control (5 μg/ml) for an hour before the addition of cytokines.
Supernatants were collected and the cytokine concentration were measured by ELISA kits (R&D systems). These established assays were used to test the potency of and SM17 and bsBps. […] Results were expressed in absolute amount in pg/ml.
SM17, three different SM17-anti-IL33 bsBps and three different SM17-anti-TSLP bsBps (all at 5 μg/ml) were added to human PBMC cultures under conditions that shall induce the release of IFNγ, CCL8, CCL17 and IL-5 as described in Example 11 above. The levels of different cytokines and chemotactic factors in supernatant obtained in induced PBMC were evaluated using standard ELISA methods.

SM17: humanized anti-IL17RB monoclonal antibody, human IgG4 isotype; HC SEQ ID NO: 32, LC SEQ ID NO: 33
binding of SM17 to RhIL17RB-HEK293 [1]: 39% | release of IL-5 from human PBMC induced with IL-2 and IL-25 (in words) [2]: suppressed the release of IL-5 | Ka (Cyno-IL17RB): 32100 M⁻¹ s⁻¹ and 42100 M⁻¹ s⁻¹ | Kdis (Cyno-IL17RB): 2.73e-05 s⁻¹ and 0.000215 s⁻¹ | Cell proliferation inhibition, Th2 [3]: +++ | secretion of IL-5 (in words) (Human PBMCs): effectively suppress | secretion of IL-13 (in words) (Human PBMCs): effectively suppress
